Data reported in the supplement of paper PMC12698765.
Counter-ions that a name gives are not always drawn. ± gives the standard deviation of the averaged measurements.

Tests used:
[1] = system: 409B2 hiPSC (iCRISPR Cas9, FRMD7 editing); experiment: cell survival relative to solvent control (fold (ratio to mock)); higher = more surviving cells
Procedure: (§1)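 Subset screen of 55 drugs tested at 5 concentrations around the effective screening dose, in 409B2 iCRISPR Cas9 hiPSCs editing FRMD7 with a ssDNA donor. Drugs were applied for 24 h. Viability was read by resazurin and editing outcomes by amplicon sequencing (HDR, NHEJ <2 bp microhomology, MMEJ ≥2 bp microhomology). Values are relative to solvent mock controls; two biological replicates.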

[2] = system: 409B2 hiPSC (iCRISPR Cas9, FRMD7 editing); experiment: HDR (precise edit) frequency relative to solvent control (fold (ratio to mock)); higher = more homology-directed repair outcomes
Procedure: as §1

[3] = system: 409B2 hiPSC (iCRISPR Cas9, FRMD7 editing); experiment: NHEJ-attributed indel frequency relative to solvent control (fold (ratio to mock)); higher = more NHEJ outcomes
Procedure: as §1

[4] = system: 409B2 hiPSC (iCRISPR Cas9, FRMD7 editing); experiment: MMEJ-attributed deletion frequency relative to solvent control (fold (ratio to mock)); higher = more MMEJ outcomes
Procedure: as §1

Structure (SMILES): CO[C@@H]1[C@H](OC(=O)/C=C/C=C/C=C/C=C/C(=O)O)CC[C@]2(CO2)[C@H]1[C@@]1(C)O[C@@H]1CC=C(C)C [Fumagillin] (in DMSO)
- cell survival ([1]; 20 nM): 0.264
- cell survival ([1]; 50 nM): 0.134
- cell survival ([1]; 100 nM): 0.0522
- cell survival ([1]; 200 nM): 0.0162
- cell survival ([1]; 500 nM): 0.0244
- HDR ([2]; 20 nM): 1.073 ± 0.0017
- HDR ([2]; 50 nM): 0.886 ± 0.049
- HDR ([2]; 100 nM): 0.791 ± 0.23
- HDR ([2]; 200 nM): 0.512 ± 0.27
- HDR ([2]; 500 nM): 0.471 ± 0.18
- NHEJ-attributed indel frequency ([3]; 20 nM): 0.883 ± 0.019
- NHEJ-attributed indel frequency ([3]; 50 nM): 0.767 ± 0.041
- NHEJ-attributed indel frequency ([3]; 100 nM): 0.723 ± 0.14
- NHEJ-attributed indel frequency ([3]; 200 nM): 0.604 ± 0.14
- NHEJ-attributed indel frequency ([3]; 500 nM): 0.537 ± 0.071
- MMEJ-attributed deletion frequency ([4]; 20 nM): 0.749 ± 0.1
- MMEJ-attributed deletion frequency ([4]; 50 nM): 0.7745 ± 0.0004
- MMEJ-attributed deletion frequency ([4]; 100 nM): 0.739 ± 0.15
- MMEJ-attributed deletion frequency ([4]; 200 nM): 0.705 ± 0.15
- MMEJ-attributed deletion frequency ([4]; 500 nM): 0.656 ± 0.17

Structure (SMILES): O=[N+]([O-])O[C@@H]1CO[C@H]2[C@@H]1OC[C@@H]2O [Isosorbide 5-mononitrate] (in DMSO)
- cell survival ([1]; 2000 nM): 0.898
- cell survival ([1]; 5000 nM): 1.39
- cell survival ([1]; 10000 nM): 1.19
- cell survival ([1]; 20000 nM): 1.15
- cell survival ([1]; 50000 nM): 1.36
- HDR ([2]; 2000 nM): 1.08 ± 0.25
- HDR ([2]; 5000 nM): 1.14 ± 0.04
- HDR ([2]; 10000 nM): 1.14 ± 0.051
- HDR ([2]; 20000 nM): 1.07 ± 0.14
- HDR ([2]; 50000 nM): 1.22 ± 0.11
- NHEJ-attributed indel frequency ([3]; 2000 nM): 0.899 ± 0.036
- NHEJ-attributed indel frequency ([3]; 5000 nM): 0.9787 ± 0.0053
- NHEJ-attributed indel frequency ([3]; 10000 nM): 0.967 ± 0.016
- NHEJ-attributed indel frequency ([3]; 20000 nM): 0.988 ± 0.033
- NHEJ-attributed indel frequency ([3]; 50000 nM): 0.983 ± 0.013
- MMEJ-attributed deletion frequency ([4]; 2000 nM): 0.904 ± 0.25
- MMEJ-attributed deletion frequency ([4]; 5000 nM): 0.993 ± 0.058
- MMEJ-attributed deletion frequency ([4]; 10000 nM): 0.983 ± 0.057
- MMEJ-attributed deletion frequency ([4]; 20000 nM): 0.994 ± 0.012
- MMEJ-attributed deletion frequency ([4]; 50000 nM): 0.955 ± 0.048

Structure (SMILES): N=C(NCCCCCCNC(=N)NC(=N)Nc1ccc(Cl)cc1)NC(=N)Nc1ccc(Cl)cc1 [Chlorhexidine HCl] (in DMSO)
- cell survival ([1]; 200 nM): 1.04
- cell survival ([1]; 500 nM): 1.24
- cell survival ([1]; 1000 nM): 1.02
- cell survival ([1]; 2000 nM): 1.03
- cell survival ([1]; 5000 nM): 0.0831
- HDR ([2]; 200 nM): 1.06 ± 0.051
- HDR ([2]; 500 nM): 1.09 ± 0.038
- HDR ([2]; 1000 nM): 1 ± 0.044
- HDR ([2]; 2000 nM): 0.874 ± 0.023
- HDR ([2]; 5000 nM): 0.294 ± 0.063
- NHEJ-attributed indel frequency ([3]; 200 nM): 0.973 ± 0.014
- NHEJ-attributed indel frequency ([3]; 500 nM): 0.995 ± 0.021
- NHEJ-attributed indel frequency ([3]; 1000 nM): 0.997 ± 0.011
- NHEJ-attributed indel frequency ([3]; 2000 nM): 1.05 ± 0.043
- NHEJ-attributed indel frequency ([3]; 5000 nM): 0.6546 ± 0.0051
- MMEJ-attributed deletion frequency ([4]; 200 nM): 0.966 ± 0.067
- MMEJ-attributed deletion frequency ([4]; 500 nM): 0.8989 ± 0.0017
- MMEJ-attributed deletion frequency ([4]; 1000 nM): 0.994 ± 0.067
- MMEJ-attributed deletion frequency ([4]; 2000 nM): 1.07 ± 0.082
- MMEJ-attributed deletion frequency ([4]; 5000 nM): 0.946 ± 0.12

Structure (SMILES): CN(C)C(=O)Oc1cccc([N+](C)(C)C)c1 [Hodostin] (in DMSO)
- cell survival ([1]; 2000 nM): 0.969
- cell survival ([1]; 5000 nM): 1.28
- cell survival ([1]; 10000 nM): 1
- cell survival ([1]; 20000 nM): 1.14
- cell survival ([1]; 50000 nM): 1.29
- HDR ([2]; 2000 nM): 1.13 ± 0.068
- HDR ([2]; 5000 nM): 1.1 ± 0.087
- HDR ([2]; 10000 nM): 1.05 ± 0.15
- HDR ([2]; 20000 nM): 1.15 ± 0.044
- HDR ([2]; 50000 nM): 1.24 ± 0.054
- NHEJ-attributed indel frequency ([3]; 2000 nM): 0.983 ± 0.013
- NHEJ-attributed indel frequency ([3]; 5000 nM): 0.992 ± 0.024
- NHEJ-attributed indel frequency ([3]; 10000 nM): 0.996 ± 0.04
- NHEJ-attributed indel frequency ([3]; 20000 nM): 0.9928 ± 0.0066
- NHEJ-attributed indel frequency ([3]; 50000 nM): 0.992 ± 0.029
- MMEJ-attributed deletion frequency ([4]; 2000 nM): 0.943 ± 0.1
- MMEJ-attributed deletion frequency ([4]; 5000 nM): 0.965 ± 0.13
- MMEJ-attributed deletion frequency ([4]; 10000 nM): 0.922 ± 0.014
- MMEJ-attributed deletion frequency ([4]; 20000 nM): 0.944 ± 0.085
- MMEJ-attributed deletion frequency ([4]; 50000 nM): 1.05 ± 0.12

Structure (SMILES): NC(=O)CC[C@@H](N)C(=O)O [D-Glutamine] (in H2O)
- cell survival ([1]; 20 nM): 0.958
- cell survival ([1]; 50 nM): 1.03
- cell survival ([1]; 100 nM): 0.932
- cell survival ([1]; 200 nM): 1.16
- cell survival ([1]; 500 nM): 0.888
- HDR ([2]; 20 nM): 0.953 ± 0.047
- HDR ([2]; 50 nM): 0.985 ± 0.033
- HDR ([2]; 100 nM): 0.9265 ± 0.0046
- HDR ([2]; 200 nM): 0.985 ± 0.031
- HDR ([2]; 500 nM): 0.965 ± 0.055
- NHEJ-attributed indel frequency ([3]; 20 nM): 1.02 ± 0.029
- NHEJ-attributed indel frequency ([3]; 50 nM): 1.03 ± 0.016
- NHEJ-attributed indel frequency ([3]; 100 nM): 1.02 ± 0.028
- NHEJ-attributed indel frequency ([3]; 200 nM): 1.03 ± 0.025
- NHEJ-attributed indel frequency ([3]; 500 nM): 1.01 ± 0.024
- MMEJ-attributed deletion frequency ([4]; 20 nM): 0.971 ± 0.055
- MMEJ-attributed deletion frequency ([4]; 50 nM): 0.874 ± 0.034
- MMEJ-attributed deletion frequency ([4]; 100 nM): 0.887 ± 0.17
- MMEJ-attributed deletion frequency ([4]; 200 nM): 0.933 ± 0.064
- MMEJ-attributed deletion frequency ([4]; 500 nM): 0.918 ± 0.092

Structure (SMILES): CC(=O)O[C@]1(C(C)=O)CC[C@H]2[C@@H]3C=C(Cl)C4=CC(=O)[C@@H]5C[C@@H]5[C@]4(C)[C@H]3CC[C@@]21C [Cyproterone Acetate] (in DMSO)
- cell survival ([1]; 20 nM): 0.984
- cell survival ([1]; 50 nM): 1.23
- cell survival ([1]; 100 nM): 1.12
- cell survival ([1]; 200 nM): 1.09
- cell survival ([1]; 500 nM): 1.23
- HDR ([2]; 20 nM): 1.1 ± 0.048
- HDR ([2]; 50 nM): 1.119 ± 0.007
- HDR ([2]; 100 nM): 1.09 ± 0.054
- HDR ([2]; 200 nM): 1.03 ± 0.013
- HDR ([2]; 500 nM): 1.14 ± 0.058
- NHEJ-attributed indel frequency ([3]; 20 nM): 0.962 ± 0.045
- NHEJ-attributed indel frequency ([3]; 50 nM): 0.9767 ± 0.0039
- NHEJ-attributed indel frequency ([3]; 100 nM): 0.9929 ± 0.0094
- NHEJ-attributed indel frequency ([3]; 200 nM): 1.01 ± 0.014
- NHEJ-attributed indel frequency ([3]; 500 nM): 0.964 ± 0.042
- MMEJ-attributed deletion frequency ([4]; 20 nM): 1.18 ± 0.11
- MMEJ-attributed deletion frequency ([4]; 50 nM): 0.986 ± 0.03
- MMEJ-attributed deletion frequency ([4]; 100 nM): 0.9921 ± 0.0047
- MMEJ-attributed deletion frequency ([4]; 200 nM): 0.915 ± 0.022
- MMEJ-attributed deletion frequency ([4]; 500 nM): 0.999 ± 0.017
